Read-outs that look alike come from different tables or passages of the source.
Key:
[1] = molecular target: p70S6K (Homo sapiens, UniProt P23443); experiment: Luciferase-coupled chemiluminescence kinase assay (ATP consumption); assay type: biochemical
Summary of the method: (§1)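 Activity is read as ATP depletion: luciferase-luciferin reagent added after a 3 h ambient-temperature kinase reaction, with total ATP use limited to 25-60%. Before ATP addition, 2.5-5 nM kinase and compound were preincubated 30 min in Tris pH 7.5/MgCl2/TX-100/DTT buffer; […].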

[2] = molecular target: AktK (Homo sapiens, UniProt P31749); experiment: as above; assay type: biochemical; settings: read-out: AKT-1 IC50
Summary of the method: as §1

Chain of p70S6K (P23443 whole entry): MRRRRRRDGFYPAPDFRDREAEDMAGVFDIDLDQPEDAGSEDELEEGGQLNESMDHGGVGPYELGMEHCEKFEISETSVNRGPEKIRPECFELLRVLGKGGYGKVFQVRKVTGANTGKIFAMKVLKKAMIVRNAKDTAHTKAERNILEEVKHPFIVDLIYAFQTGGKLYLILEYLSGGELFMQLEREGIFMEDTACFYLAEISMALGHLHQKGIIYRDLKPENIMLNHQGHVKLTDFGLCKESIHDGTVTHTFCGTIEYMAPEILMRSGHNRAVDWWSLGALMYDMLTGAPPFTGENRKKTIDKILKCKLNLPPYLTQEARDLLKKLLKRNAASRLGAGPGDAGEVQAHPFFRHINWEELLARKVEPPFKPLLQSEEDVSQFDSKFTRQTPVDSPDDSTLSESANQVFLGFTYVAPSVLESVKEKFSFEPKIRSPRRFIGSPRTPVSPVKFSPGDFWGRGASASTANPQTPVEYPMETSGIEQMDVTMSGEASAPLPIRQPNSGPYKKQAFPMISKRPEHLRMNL
Chain of AktK (P31749 whole entry): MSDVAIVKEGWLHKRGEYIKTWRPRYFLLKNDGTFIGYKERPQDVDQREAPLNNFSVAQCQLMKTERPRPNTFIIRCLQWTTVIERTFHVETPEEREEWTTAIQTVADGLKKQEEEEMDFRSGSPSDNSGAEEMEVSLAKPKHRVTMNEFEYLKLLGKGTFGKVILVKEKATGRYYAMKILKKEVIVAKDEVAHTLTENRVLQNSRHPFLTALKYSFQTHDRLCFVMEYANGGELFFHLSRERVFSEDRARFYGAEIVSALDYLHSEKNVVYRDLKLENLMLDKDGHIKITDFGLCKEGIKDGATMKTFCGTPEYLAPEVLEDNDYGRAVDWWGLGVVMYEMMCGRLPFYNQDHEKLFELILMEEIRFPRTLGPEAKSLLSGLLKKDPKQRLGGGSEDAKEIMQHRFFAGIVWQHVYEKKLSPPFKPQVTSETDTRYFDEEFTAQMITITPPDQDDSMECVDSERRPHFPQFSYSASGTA

Row | IC50 ([1]; Table 1, class symbols per key) [nM] | IC50 ([2]; Table 1, class symbols per key) [nM] | IC50 [1] [nM] | IC50 [2] [nM] | Structure (SMILES)
1 | 100 to 1000 | ≥ 10000 | – | – | CCc1n[nH]c2ncnc(N3CCN(c4cc(F)cc(Br)c4Cl)CC3)c12 [Entry 114, 4-[4-(3-bromo-2-chloro-5-fluorophenyl)piperazin-1-yl]-3-ethyl-1H-pyrazolo[3,4-d]pyrimidine]
2 | – | – | 1000 to 10000 | 1000 to 10000 | Cc1ccc(Cl)cc1N1CCN(c2ncnc3[nH]nc(-c4cccc(OCc5ccccc5)c4)c23)CC1 [Entry 336, 4-[4-(5-chloro-2-methylphenyl)piperazin-1-yl]-3-{3-[(phenylmethyl)oxy]phenyl}-1H-pyrazolo[3,4-d]pyrimidine]
3 | – | – | < 100 | 1000 to 10000 | Cc1ccc(Cl)cc1N1CCN(c2ncnc3[nH]ncc23)CC1 [Entry 320, 4-[4-(5-chloro-2-methylphenyl)piperazin-1-yl]-1H-pyrazolo[3,4-d]pyrimidine]
4 | < 100 | < 100 | – | – | Cc1c(CCCN2CCCC2)cc(Cl)cc1N1CCN(c2ncnc3[nH]nc(C(F)(F)F)c23)CC1 [Entry 61, 4-{4-[5-chloro-2-methyl-3-(3-pyrrolidin-1-ylpropyl)phenyl]piperazin-1-yl}-3-(trifluoromethyl)-1H-pyrazolo[3,4-d]pyrimidine]
5 | – | – | < 100 | 1000 to 10000 | Cc1ccc(Cl)cc1N1CCN(c2ncnc3[nH]nc(C(F)(F)F)c23)CC1 [Entry 348, 4-[4-(5-chloro-2-methylphenyl)piperazin-1-yl]-3-(trifluoromethyl)-1H-pyrazolo[3,4-d]pyrimidine]
6 | – | – | 100 to 1000 | 1000 to 10000 | COc1ccccc1-c1n[nH]c2ncnc(N3CCN(c4cc(Cl)ccc4C)CC3)c12 [Entry 363, 4-[4-(5-chloro-2-methylphenyl)piperazin-1-yl]-3-[2-(methyloxy)phenyl]-1H-pyrazolo[3,4-d]pyrimidine]
7 | < 100 | 100 to 1000 | – | – | Cc1c(CCCN2CCCC2)cc(F)cc1N1CCN(c2ncnc3[nH]nc(Br)c23)CC1 [Entry 60, 3-bromo-4-{4-[5-fluoro-2-methyl-3-(3-pyrrolidin-1-ylpropyl)phenyl]piperazin-1-yl}-1H-pyrazolo[3,4-d]pyrimidine]
8 | < 100 | 1000 to 10000 | – | – | Cc1ccc(C(=O)NCc2ccccc2)cc1N1CCN(c2ncnc3[nH]nc(Br)c23)C[C@@H]1C [Entry 178, 3-[(2S)-4-(3-bromo-1H-pyrazolo[3,4-d]pyrimidin-4-yl)-2-methylpiperazin-1-yl]-4-methyl-N-(phenylmethyl)benzamide]
9 | – | – | 1000 to 10000 | ≥ 10000 | CCc1n[nH]c2ncnc(N3CCN(c4ccc(OCCN5CCCCC5)c(Cl)c4)CC3)c12 [Entry 350, 4-(4-{3-chloro-4-[(2-piperidin-1-ylethyl)oxy]phe-nyl}piperazin-1-yl)-3-ethyl-1H-pyrazolo[3,4-d]pyrimidine]
10 | – | – | 1000 to 10000 | ≥ 10000 | CCc1n[nH]c2ncnc(N3CCN(c4cccc(Cl)c4)C(C(=O)OC)C3)c12 (centres unmarked) [Entry 346, methyl 1-(3-chlorophenyl)-4-(3-ethyl-1H-pyrazolo[3,4-d]pyrimidin-4-yl)piperazine-2-carboxylate]
11 | < 100 | 100 to 1000 | – | – | CCN(CC)CCOc1cc(Cl)cc(N2CCN(c3ncnc4[nH]nc(C(F)(F)F)c34)CC2)c1C [Entry 34, 2-[(5-chloro-2-methyl-3-{4-[3-(trifluoromethyl)-1H-pyrazolo[3,4-d]pyrimidin-4-yl]piperazin-1-yl}phenyl)oxy]-N,N-diethylethanamine]
12 | < 100 | < 100 | – | – | CCC(=O)c1cc(NCCN2CCCC2)c(C)c(N2CCN(c3ncnc4[nH]nc(Br)c34)CC2)c1 [Entry 243, 1-{3-[4-(3-bromo-1H-pyrazolo[3,4-d]pyrimidin-4-yl)piperazin-1-yl]-4-methyl-5-[(2-pyrrolidin-1-ylethyl)amino]phenyl}propan-1-one]

Row | Structure (SMILES) | IC50 ([1]; Table 1, class symbols per key) [nM] | IC50 ([2]; Table 1, class symbols per key) [nM] | IC50 [1] [nM] | IC50 [2] [nM]
13 | Clc1cc(NCCN2CCCC2)cc(N2CCN(c3ncnc4[nH]nc(Br)c34)CC2)c1 [Entry 267, 3-[4-(3-bromo-1H-pyrazolo[3,4-d]pyrimidin-4-yl)piperazin-1-yl]-5-chloro-N-(2-pyrrolidin-1-ylethyl)aniline] | < 100 | < 100 | – | –
